Values of other authors in paper PMC6182381, “Population Pharmacokinetics and Exposure-Response Relationships of Naldemedine” (Pharmaceutical Research, 2018).

Set-up: method as in earlier work
Conditions: cited from earlier work

N=C(N)c1ccccc1 [Benzamidine]
metabolite excreted in feces: ~20 % of the administered dose of naldemedine | metabolite excreted in urine: approximately 32 % of the administered dose of naldemedine
